Holding throughout (type): biochemical
The subject of data set [1] is Invitrogen Low Mass ladder. Description: Exonuclease activity assay. Conditions: 2, 4 or 10 μg enzyme, 16 hours at 37° C., visual assessment of ladder bands. The procedure: An assay comparing the endogenous exonuclease activity of a reference polymerase, T7 DNA polymerase, with the exonuclease activity of a polymerase comprising the amino acid of SEQ ID NO: 7, was performed. Exonuclease activity was measured by incubating 2, 4 or 10 μg of each enzyme sample with 7.5 μL Invitrogen Low Mass ladder, (10068-013) in a 50 μL reaction containing 10 mM Tris, pH 7.5, 50 mM NaCl and 10 mM MgCl2 for 16 hours at 37° C. in an ABI 9700 PCR machine. The samples were resolved via electrophoresis on a 1.2% E-Gel (Life Technologies). The extent of exonuclease activity was estimated by visually assessing the disappearance of the bands of the Low Mass ladder, as compared to negative control reactions, to which water (“W”) or enzyme storage buffer (“SB”) was added instead of purified polymerase).

For data set [2], the system named is AF647-C6-dG6P and Alexa Fluor 546 dye-labeled primer-template duplex. Description: Stopped-flow measurement of tpol (nucleotide incorporation kinetics). Conditions: tpol = 1/kpol; 7 μM AF647-C6-dG6P, 330 nM polymerase, 100 nM template/primer duplex, 2 mM MnCl2. Also noted: unit not given here. The procedure:
In this example, the t−1 and tpol values of a Phi-29 polymerase comprising the amino acid sequence of SEQ ID NO: 1 and a modified B103 polymerase comprising the amino acid sequence of SEQ ID NO: 8 (referred to as “mB103 in the table below) and further including amino acid substitutions at various positions were measured using a stopped-flow procedure. The stopped-flow techniques for measuring tpol (1/kpol) followed the techniques described by MP Roettger (2008 Biochemistry 47:9718-9727; M. Bakhtina 2009 Biochemistry 48:3197-320).
Stopped-Flow Measurements of tpol
The template sequence (SEQ ID NO: 44) further included an Alexa Fluor 546 dye moiety bonded to the 5′ position of the template.
The kinetics of nucleotide incorporation by each polymerase was measured in an Applied Photophysics SX20 stopped-flow spectrometer by monitoring changes in fluorescence from the dye-labeled primer-template duplex complexed to enzyme, following the mixing of the enzyme-DNA complex with dye-labeled nucleotides. These dye-labeled nucleotides comprise terminal-phosphate-labeled nucleotides having an alkyl linker with a functional amine group attached to the dye, and have the general structure shown in FIG. 11. This structure includes a sugar bonded to a hexaphosphate chain at the 5′ carbon position, and to a nucleotide base (denoted as “N”). The terminal phosphate group of the hexaphosphate is linked to a 6-carbon linker, and the other end of the 6-carbon linker is attached to a dye moiety (denoted as “dye”), typically through an amide bond. In this example, the particular dye-labeled nucleotide added was a labeled nucleotide hexaphosphate comprising a guanine base at the N (base) position and an Alexa Fluor 647 (AF647) at the dye position, and is referred to herein as “AF647-C6-dG6P”.
The primer and template were annealed to form a dye-labeled primer-template duplex using standard methods. This duplex was preincubated with polymerase. The mixture included 330 nM recombinant DNA polymerase, 100 nM template/primer duplex in buffer (“reaction buffer”) comprising 50 mM Tris-HCl, pH 7.5, 50 mM NaCl, 4 mM DTT, 0.2% BSA, and 2 mM MnCl2. The dye-labeled nucleotide AF647-C6-dG6P was then added to a final concentration of 7 μM, and the resulting fluorescence was monitored over time.
The averaged (5 traces) stopped-flow fluorescence traces (>1.5 ms) were fitted with a double exponential equation (1) to extrapolate the rates of the nucleotide binding and product release, Fluorescence=A1*e^−k1*t+A2*e^−kpol*t+C (equation 1) where A1 and A2 represent corresponding fluorescence amplitudes, C is an offset constant, and k1 and kpol are the observed rate constants for the fast and slow phases of the fluorescence transition, respectively.

Data set [3] relates to AF647-C6-dG6P in [enzyme.DNA.nucleotide] ternary complex with dideoxy-primer/template duplex. Description: Stopped-flow measurement of t−1 (nucleotide dissociation from ternary complex). Further details: unit not given here. Conditions: t−1 = 1/k−1; ternary complex with 7 μM AF647-C6-dG6P chased with 50 μM non-labeled nucleotide, 2 mM MnCl2. The procedure:
Stopped-Flow Measurements of t−1
The stopped-flow techniques for measuring t−1 ([…]) followed the techniques described by M. Bakhtina (2009 Biochemistry 48:3197-3208).
The rate of the nucleotide dissociation ([…]) from the ternary complex of [enzyme.DNA.nucleotide] was measured in an Applied Photophysics SX20 stopped-flow spectrometer by monitoring changes […] a duplex Alexa fluor 546 dye-labeled-DNA template following the mixing of the [enzyme.DNA.labeled nucleotide] ternary complex with 50 μM cognate non-labeled deoxynucleoside triphosphate in a buffer containing 50 mM Tris-HCl (pH 7.5), 50 mM NaCl, 4 mM DTT, 0.2% BSA, and 2 mM MnCl2.
The ternary complexes were prepared using: 330 nM polymerase, 100 nM template/primer duplex, and 7 μM terminal phosphate-labeled nucleotides (AF647-C6-dG6P).
The averaged stopped-flow fluorescence traces (>1.5 msec) were fitted with a single exponential equation (2) to extrapolate the rate of the nucleotide dissociation (k−1) from the [enzyme.DNA.nucleotide] ternary complex. Fluorescence=A1*e^−k−1*t+C (equation 2) where A1 represents the corresponding fluorescence amplitude, C is an offset constant, and k−1 and the observed rate constants for the fluorescence transition.

Data set [4] concerns hairpin-template, test nanoparticle. Description: Nanoparticle tolerance assay (primer extension with and without test nanoparticle). Conditions: 100 nM polymerase, 100 nM nanoparticle, 23° C. The procedure: The nanoparticle tolerance of exemplary modified and reference polymerases was measured and compared. The nucleotide incorporation activity of an exemplary modified polymerase comprising the amino acid sequence of SEQ ID NO: 19 and further comprising the amino acid substitution D175A was measured both in the absence and presence of equimolar amounts of a test nanoparticle. The results were compared to those of an exemplary reference Phi-29 polymerase comprising the amino acid sequence of SEQ ID NO: 20.
Primer extension activity was measured using an assay wherein free pyrophosphate released as a result of extension of a primer:template duplex is detected as a fluorescent product. […] The resulting fluorescence emissions were monitored as a function of time using a plate reader (Molecular Devices, SpectraMax M5). Reactions without nucleotides were also monitored as negative controls. Reactions were monitored for 20 minutes or until the samples reached saturation.
Exemplary results are depicted in FIG. 5, which provides a graph of relative fluorescence observed in each sample (RFU, arbitrary units, Y axis) against time (seconds, X axis). […] Primer extension activity was measured as the average slope of the curve obtained by plotting fluorescence (RFU) vs. time (seconds, X axis) between the zero time point and at 5 minutes. […]

Take “SEQ ID NO: 7: B103 polymerase variant with substitutions F383L and D384N”: in data set [1], the exonuclease activity entry was “comparable levels of exonuclease activity”. Consider “T7 DNA polymerase: reference polymerase, positive control for exonuclease activity [reference compound]”, for which the exonuclease activity result in data set [1] is given as “comparable levels of exonuclease activity”. As for “mB103 + D507G: modified B103 polymerase of SEQ ID NO: 8 with substitution D507G”, the tpol in data set [2] turned out to be 11. Further, the “t−1” value in data set [3] stood at 13. In data set [2], “mB103 + D507H: modified B103 polymerase of SEQ ID NO: 8 with substitution D507H” showed a tpol of 7. Moreover, the “t−1” value in data set [3] turned out to be 16. “mB103 + E371R: modified B103 polymerase of SEQ ID NO: 8 with substitution E371R” came in with a tpol in data set [2] of 11. In data set [3], the “t−1” value was 17. Substance “mB103 + E371Y: modified B103 polymerase of SEQ ID NO: 8 with substitution E371Y” gave a tpol in data set [2] of 11. Further, the “t−1” value in data set [3] is reported as 7. The substance “mB103 + H370R: modified B103 polymerase of SEQ ID NO: 8 with substitution H370R” had a tpol in data set [2] of 17. Also, the “t−1” value in data set [3] is on record as 43. Substance “mB103 + H370Y: modified B103 polymerase of SEQ ID NO: 8 with substitution H370Y” showed a tpol in data set [2] of 15. In data set [3], the “t−1” value is listed as 12.

“mB103 + K509Y: modified B103 polymerase of SEQ ID NO: 8 with substitution K509Y” had a tpol in data set [2] of 10. In addition, the “t−1” value in data set [3] was 20. “reference Phi-29 polymerase: reference Phi-29 polymerase of Example 5; SEQ ID NO: 20 or SEQ ID NO: 1 with N62D [reference compound]” showed a nanoparticle tolerance in data set [4] of 50%. The “loss in primer extension activity in the presence of equimolar amounts of the test nanoparticle” value in data set [4] (slope zero to 5 minutes) turned out to be 50%.
